Measurements from ChEMBL document CHEMBL1201862, “PubChem BioAssay data set” (2004).
Activity calls are given as the source filed them.

Tests used:
[1] = target: Nuclear receptor subfamily 5 group A member 2 (Homo sapiens, UniProt O00482); type: functional, cell-based;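 note: HEK293T cells transfected with LRH-1 and a StAR promoter luciferase reporter; potency for inhibitors that lower LRH-1 driven reporter light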
Steroidogenic factor 1 = Steroidogenic factor 1 (Homo sapiens, UniProt Q13285); assay: Counterscreen for inverse agonists of the liver receptor homolog-1 (LRH-1; NR5A2): Luminescence-based cell-based high throughput dose response assay to identify inverse agonists of the Steroidogenic Factor 1 Nuclear Receptor (SF1; NR5A1).; type: functional
[2] = StAR promoter reporter inhibition counter-screen, dose response, counter-screen for LRH-1 inverse agonist project, cell-based, luminescence, luciferase reporter (AID 651969); type: functional
[3] = target: Tyrosine-protein phosphatase non-receptor type 11 (Homo sapiens, UniProt Q06124); assay: SHP2 phosphatase inhibition, dose response, selectivity assay for STEP inhibitor project, biochemical (AID 602367); type: functional; conditions: read-out: IC50_Mean
[4] = target: Tyrosine-protein phosphatase non-receptor type 5 (Homo sapiens, UniProt P54829); assay: STEP phosphatase inhibitors, confirmation, biochemical, fluorescence intensity, uHTS hits (AID 602372); type: functional; conditions: read-out: IC50_Mean
[5] = target: Dual specificity protein phosphatase 3 (Homo sapiens, UniProt P51452); assay: VHR phosphatase inhibition, dose response, selectivity assay for STEP inhibitor project, biochemical (AID 602374); type: functional; conditions: read-out: IC50_Mean
[6] = target: T1, Tyrosine-protein phosphatase non-receptor type 22 (Homo sapiens, UniProt Q9Y2R2); assay: PTPN22 phosphatase inhibition, dose response, selectivity assay for STEP inhibitor project, biochemical (AID 624241); type: functional
T1 sequence (Q9Y2R2 whole entry): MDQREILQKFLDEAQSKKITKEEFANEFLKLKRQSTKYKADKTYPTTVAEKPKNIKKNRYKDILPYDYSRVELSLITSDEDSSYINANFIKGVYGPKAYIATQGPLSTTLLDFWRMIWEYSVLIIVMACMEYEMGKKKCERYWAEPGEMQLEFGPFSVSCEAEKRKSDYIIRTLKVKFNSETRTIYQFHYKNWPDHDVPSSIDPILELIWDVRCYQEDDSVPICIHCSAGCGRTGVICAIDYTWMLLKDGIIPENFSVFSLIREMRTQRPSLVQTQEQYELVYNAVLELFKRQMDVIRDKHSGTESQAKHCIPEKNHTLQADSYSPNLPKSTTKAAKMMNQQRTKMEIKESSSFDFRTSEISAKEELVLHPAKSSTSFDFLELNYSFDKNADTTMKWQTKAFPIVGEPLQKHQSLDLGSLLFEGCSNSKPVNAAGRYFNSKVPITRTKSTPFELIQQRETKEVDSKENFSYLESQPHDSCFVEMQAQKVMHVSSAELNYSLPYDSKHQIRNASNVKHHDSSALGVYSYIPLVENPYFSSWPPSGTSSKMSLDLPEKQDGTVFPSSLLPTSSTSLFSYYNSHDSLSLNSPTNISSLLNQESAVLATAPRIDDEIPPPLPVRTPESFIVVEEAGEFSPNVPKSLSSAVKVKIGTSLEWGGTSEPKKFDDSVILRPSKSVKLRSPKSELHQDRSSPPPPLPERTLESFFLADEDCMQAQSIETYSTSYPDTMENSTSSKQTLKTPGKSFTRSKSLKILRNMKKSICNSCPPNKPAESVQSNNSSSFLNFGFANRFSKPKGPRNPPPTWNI

Beta-lactamase [7] = target: Beta-lactamase (Salmonella choleraesuis (strain SC-B67), UniProt Q5J463); assay: Epi-absorbance-based counterscreen for selective VIM-2 inhibitors: dose response biochemical high throughput screening assay to identify inhibitors of TEM-1 serine-beta-lactamase.
Beta-lactamase [8] = target: T2, Beta-lactamase (Pseudomonas aeruginosa, UniProt Q79MP6); assay: IMP-1 metallo-beta-lactamase inhibitors, dose response, selectivity assay for VIM-2 inhibitor project, biochemical, epi-absorbance (AID 1920)
Beta-lactamase [9] = target: T2, Beta-lactamase; assay: […] counterscreen for selective VIM-2 inhibitors: dose response biochemical high throughput screening assay to identify inhibitors of IMP-1 metallo-beta-lactamase.
[10] = target: T3, Sentrin-specific protease 8 (Homo sapiens, UniProt Q96LD8); type: functional
T3 sequence (Q96LD8 whole entry): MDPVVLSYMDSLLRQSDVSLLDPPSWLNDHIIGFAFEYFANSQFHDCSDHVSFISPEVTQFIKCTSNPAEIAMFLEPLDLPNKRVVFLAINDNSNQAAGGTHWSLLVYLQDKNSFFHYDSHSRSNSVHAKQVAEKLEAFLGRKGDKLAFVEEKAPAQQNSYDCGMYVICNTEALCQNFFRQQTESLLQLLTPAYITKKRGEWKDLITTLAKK

[11] = target: T3, Sentrin-specific protease 8; type: functional; remark: listed apart in the source
Caspase-3 = target: T4, Caspase-3 (Homo sapiens, UniProt P42574); assay: Dose-response confirmation of uHTS inhibitor hits of Sentrin-Specific Protease 8 in a Caspase-3 Fluorescence assay.; type: functional
T4 sequence (P42574 whole entry): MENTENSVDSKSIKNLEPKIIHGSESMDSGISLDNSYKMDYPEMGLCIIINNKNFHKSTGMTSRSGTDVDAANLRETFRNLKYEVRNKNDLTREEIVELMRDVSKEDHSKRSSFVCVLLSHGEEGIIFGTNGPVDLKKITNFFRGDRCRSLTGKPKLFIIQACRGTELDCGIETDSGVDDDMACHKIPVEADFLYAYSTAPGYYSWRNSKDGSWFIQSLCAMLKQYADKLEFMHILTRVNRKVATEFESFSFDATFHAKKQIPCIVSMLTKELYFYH

[12] = microbe, parasite or virus in culture; type: functional; conditions: Mycobacterium tuberculosis
Protein Wnt-3a = Protein Wnt-3a (Mus musculus, UniProt P27467); assay: Wnt3a-driven reporter signaling inhibition, dose response, selectivity assay for Gli-SUFU antagonist project, Wnt-LIGHT cells, luminescence (AID 651570); type: functional; conditions: read-out: IC50_Mean;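 note: Wnt-LIGHT reporter cells stimulated with conditioned medium from Wnt3a-producing cells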
[13] = target: Matrix metalloproteinase-14 (Homo sapiens, UniProt P50281); assay: Dose Response confirmation of uHTS hits for a small molecule inhibitors of MT1-MMP activation in a fluorescence assay set 1.; type: functional

T2 sequence (Q79MP6 whole entry): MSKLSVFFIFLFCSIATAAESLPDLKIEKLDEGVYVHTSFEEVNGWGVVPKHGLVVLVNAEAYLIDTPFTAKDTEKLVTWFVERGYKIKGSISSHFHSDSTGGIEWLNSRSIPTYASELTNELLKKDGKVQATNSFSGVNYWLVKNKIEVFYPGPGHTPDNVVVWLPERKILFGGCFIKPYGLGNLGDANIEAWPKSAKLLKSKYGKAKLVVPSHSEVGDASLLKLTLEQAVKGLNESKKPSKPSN
Sequence of Tyrosine-protein phosphatase non-receptor type 5 (P54829 whole entry): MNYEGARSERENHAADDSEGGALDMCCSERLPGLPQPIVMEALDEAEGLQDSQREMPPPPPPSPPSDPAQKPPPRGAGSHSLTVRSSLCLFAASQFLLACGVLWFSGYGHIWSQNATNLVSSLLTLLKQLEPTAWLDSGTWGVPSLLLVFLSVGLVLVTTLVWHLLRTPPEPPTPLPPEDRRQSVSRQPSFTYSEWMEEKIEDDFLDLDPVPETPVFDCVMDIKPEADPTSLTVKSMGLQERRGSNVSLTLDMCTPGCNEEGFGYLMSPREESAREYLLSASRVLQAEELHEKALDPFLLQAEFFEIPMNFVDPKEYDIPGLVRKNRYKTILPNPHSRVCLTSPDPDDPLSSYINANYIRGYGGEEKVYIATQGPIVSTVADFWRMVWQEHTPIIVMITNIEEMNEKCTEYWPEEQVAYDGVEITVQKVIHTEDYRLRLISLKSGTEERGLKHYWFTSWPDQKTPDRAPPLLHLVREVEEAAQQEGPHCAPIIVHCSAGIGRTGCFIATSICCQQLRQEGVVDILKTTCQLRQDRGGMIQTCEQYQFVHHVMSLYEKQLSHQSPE
Sequence of Protein Wnt-3a (P27467 whole entry): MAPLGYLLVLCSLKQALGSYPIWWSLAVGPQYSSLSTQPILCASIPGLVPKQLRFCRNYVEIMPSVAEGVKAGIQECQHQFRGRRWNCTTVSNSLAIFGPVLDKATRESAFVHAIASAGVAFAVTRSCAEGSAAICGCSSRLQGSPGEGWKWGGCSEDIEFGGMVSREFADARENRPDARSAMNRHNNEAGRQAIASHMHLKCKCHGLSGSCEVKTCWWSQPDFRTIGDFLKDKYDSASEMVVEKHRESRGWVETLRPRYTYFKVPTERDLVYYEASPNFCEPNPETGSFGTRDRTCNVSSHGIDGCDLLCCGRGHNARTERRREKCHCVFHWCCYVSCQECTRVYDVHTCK
Sequence of Steroidogenic factor 1 (Q13285 whole entry): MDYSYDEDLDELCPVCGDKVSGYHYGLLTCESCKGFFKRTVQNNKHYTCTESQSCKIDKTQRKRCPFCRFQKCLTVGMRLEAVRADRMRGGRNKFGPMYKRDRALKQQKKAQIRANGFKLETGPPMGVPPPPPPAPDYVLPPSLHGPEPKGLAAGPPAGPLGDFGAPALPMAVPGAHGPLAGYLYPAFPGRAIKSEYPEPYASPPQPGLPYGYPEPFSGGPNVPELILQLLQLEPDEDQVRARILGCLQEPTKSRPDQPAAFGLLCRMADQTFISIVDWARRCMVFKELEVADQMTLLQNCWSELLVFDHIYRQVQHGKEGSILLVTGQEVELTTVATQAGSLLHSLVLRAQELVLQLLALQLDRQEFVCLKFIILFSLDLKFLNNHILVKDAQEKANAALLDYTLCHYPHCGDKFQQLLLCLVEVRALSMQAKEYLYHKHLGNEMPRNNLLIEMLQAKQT
Sequence of Tyrosine-protein phosphatase non-receptor type 11 (Q06124 whole entry): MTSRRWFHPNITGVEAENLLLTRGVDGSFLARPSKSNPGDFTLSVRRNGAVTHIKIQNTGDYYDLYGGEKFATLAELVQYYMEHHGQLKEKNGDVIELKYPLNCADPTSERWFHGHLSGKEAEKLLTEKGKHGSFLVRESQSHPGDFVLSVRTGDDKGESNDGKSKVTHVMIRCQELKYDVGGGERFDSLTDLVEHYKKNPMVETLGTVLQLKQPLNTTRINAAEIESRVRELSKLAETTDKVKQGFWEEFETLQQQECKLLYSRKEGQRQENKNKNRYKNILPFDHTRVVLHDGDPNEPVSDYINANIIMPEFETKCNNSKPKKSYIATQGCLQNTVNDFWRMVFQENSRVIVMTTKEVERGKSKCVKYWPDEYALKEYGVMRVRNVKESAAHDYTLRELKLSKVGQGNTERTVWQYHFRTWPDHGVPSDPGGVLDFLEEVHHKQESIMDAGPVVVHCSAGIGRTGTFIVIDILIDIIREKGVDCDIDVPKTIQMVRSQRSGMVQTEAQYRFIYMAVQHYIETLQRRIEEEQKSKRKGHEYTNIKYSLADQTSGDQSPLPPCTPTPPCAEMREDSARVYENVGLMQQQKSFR
Sequence of Dual specificity protein phosphatase 3 (P51452 whole entry): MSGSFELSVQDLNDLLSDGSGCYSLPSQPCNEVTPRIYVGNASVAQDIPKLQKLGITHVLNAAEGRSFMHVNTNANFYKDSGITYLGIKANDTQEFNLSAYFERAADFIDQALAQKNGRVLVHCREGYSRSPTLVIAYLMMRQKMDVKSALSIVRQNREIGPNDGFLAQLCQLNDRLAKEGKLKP
Sequence of Nuclear receptor subfamily 5 group A member 2 (O00482 whole entry): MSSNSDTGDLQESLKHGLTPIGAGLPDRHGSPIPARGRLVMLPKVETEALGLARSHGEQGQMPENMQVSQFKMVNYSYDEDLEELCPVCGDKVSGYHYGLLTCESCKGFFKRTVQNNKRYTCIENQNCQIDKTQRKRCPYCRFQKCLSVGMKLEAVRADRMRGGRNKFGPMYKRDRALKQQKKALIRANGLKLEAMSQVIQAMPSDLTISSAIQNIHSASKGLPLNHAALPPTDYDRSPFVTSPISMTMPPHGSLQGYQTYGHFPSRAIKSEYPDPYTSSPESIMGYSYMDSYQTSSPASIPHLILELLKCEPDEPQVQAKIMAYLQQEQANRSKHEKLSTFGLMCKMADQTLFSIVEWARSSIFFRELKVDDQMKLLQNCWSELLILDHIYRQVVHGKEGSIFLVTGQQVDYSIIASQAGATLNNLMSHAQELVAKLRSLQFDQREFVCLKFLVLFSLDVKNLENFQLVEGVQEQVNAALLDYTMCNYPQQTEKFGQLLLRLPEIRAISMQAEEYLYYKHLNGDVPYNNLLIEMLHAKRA
Sequence of Beta-lactamase (Salmonella choleraesuis (strain SC-B67), UniProt Q5J463) (Q5J463 whole entry): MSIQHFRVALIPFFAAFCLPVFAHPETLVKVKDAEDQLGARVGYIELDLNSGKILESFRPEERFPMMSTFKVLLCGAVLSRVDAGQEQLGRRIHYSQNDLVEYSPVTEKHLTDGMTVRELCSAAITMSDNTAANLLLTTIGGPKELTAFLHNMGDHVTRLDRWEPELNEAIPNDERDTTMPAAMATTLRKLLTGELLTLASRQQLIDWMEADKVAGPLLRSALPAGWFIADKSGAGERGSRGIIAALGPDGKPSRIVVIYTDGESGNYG

COc1cc([N+](=O)[O-])ccc1NC(=O)Cn1ccsc1=N
IC50 [1]: 35.9 µM (inactive)
IC50 (Steroidogenic factor 1): 1.95 µM (active)
IC50 [2]: 35.9 µM (inactive)

N#CNc1nc(O)cc(=O)[nH]1
IC50 [3]: 2.2 µM (active)
IC50 [4]: 7.69 µM (active)
IC50 [5]: 1.24 µM (active)
IC50 [6]: 11.5 µM (active)

O=C(c1ccco1)N1N=C(c2ccc(Cl)cc2)CC1c1ccco1 (stereo unspecified)
IC50 (Beta-lactamase [7]): > 59.6 µM (inactive)
IC50 (Beta-lactamase [8]): > 59.6 µM (inactive)
IC50 (Beta-lactamase [9]): > 59.6 µM (inactive)

O=C(Cn1nc(Cc2ccncc2)c2ccccc2c1=O)N1CCc2ccccc2C1
IC50 [10]: 6.46 µM (active)
IC50 [11]: 3.48 µM (active)
IC50 (Caspase-3): 13.3 µM (active)

COc1ccccc1C(=O)NC(=S)/C=C1/N(C)c2ccccc2C1(C)C
CC50 [12]: > 40 µM (active)
IC50 (Protein Wnt-3a): 15.2 µM (active)
IC50 [13]: > 80 µM (inactive)
